Assays:
TEC kinase = TEC kinase (Homo sapiens (Human), UniProt P42680); experiment: Mass spectrometry for TEC kinase (tryptic digest); format: binding; settings: 3 hrs at 10× excess, tryptic digestion
Method: Mass Spectrometry for TEC Kinase (Compound I-2)
(§1) TEC kinase (45 pmols; Invitrogen) was incubated with (I-2) (450 pmols) for 3 hrs at 10× excess prior to tryptic digestion. Iodoacetamide was used as the alkylating agent after compound incubation. […] For tryptic digests a 5 ul aliquot (7.5 pmols) was diluted with 15 ul of 0.1% TFA prior to micro C18 Zip Tipping directly onto the MALDI target using alpha cyano-4-hydroxy cinnamic acid as the matrix (5 mg/ml in 0.1% TFA:Acetonitrile 50:50).
(§2) For tryptic digests the instrument was set in Reflectron mode with a pulsed extraction setting of 2200. Calibration was done using the Laser Biolabs Pep Mix standard ([…], 1296.69, 1672.92, 2093.09, 2465.20). For CID/PSD analysis the peptide was selected using cursors to set ion gate timing and fragmentation occurred at a laser power about 20% higher and He was used as the collision gas for CID. Calibration for fragments was done using the P14R fragmentation calibration for the Curved field Reflectron.
as §1, with “(I-4)” for “(I-2)”
as §2, with “1800.” for “2200.”
TEC kinase (45 pmols; Invitrogen) was incubated with […] (450 pmols) for 3 hrs at 10× excess prior to tryptic digestion. […]

JAK3 kinase = JAK3 kinase (Homo sapiens (Human), UniProt P52333); experiment: Mass spectrometry for Janus-3 kinase (JAK3); format: binding; settings: 3 hrs at 10× excess, tryptic digestion
Sequence of JAK3 kinase (P52333 whole entry): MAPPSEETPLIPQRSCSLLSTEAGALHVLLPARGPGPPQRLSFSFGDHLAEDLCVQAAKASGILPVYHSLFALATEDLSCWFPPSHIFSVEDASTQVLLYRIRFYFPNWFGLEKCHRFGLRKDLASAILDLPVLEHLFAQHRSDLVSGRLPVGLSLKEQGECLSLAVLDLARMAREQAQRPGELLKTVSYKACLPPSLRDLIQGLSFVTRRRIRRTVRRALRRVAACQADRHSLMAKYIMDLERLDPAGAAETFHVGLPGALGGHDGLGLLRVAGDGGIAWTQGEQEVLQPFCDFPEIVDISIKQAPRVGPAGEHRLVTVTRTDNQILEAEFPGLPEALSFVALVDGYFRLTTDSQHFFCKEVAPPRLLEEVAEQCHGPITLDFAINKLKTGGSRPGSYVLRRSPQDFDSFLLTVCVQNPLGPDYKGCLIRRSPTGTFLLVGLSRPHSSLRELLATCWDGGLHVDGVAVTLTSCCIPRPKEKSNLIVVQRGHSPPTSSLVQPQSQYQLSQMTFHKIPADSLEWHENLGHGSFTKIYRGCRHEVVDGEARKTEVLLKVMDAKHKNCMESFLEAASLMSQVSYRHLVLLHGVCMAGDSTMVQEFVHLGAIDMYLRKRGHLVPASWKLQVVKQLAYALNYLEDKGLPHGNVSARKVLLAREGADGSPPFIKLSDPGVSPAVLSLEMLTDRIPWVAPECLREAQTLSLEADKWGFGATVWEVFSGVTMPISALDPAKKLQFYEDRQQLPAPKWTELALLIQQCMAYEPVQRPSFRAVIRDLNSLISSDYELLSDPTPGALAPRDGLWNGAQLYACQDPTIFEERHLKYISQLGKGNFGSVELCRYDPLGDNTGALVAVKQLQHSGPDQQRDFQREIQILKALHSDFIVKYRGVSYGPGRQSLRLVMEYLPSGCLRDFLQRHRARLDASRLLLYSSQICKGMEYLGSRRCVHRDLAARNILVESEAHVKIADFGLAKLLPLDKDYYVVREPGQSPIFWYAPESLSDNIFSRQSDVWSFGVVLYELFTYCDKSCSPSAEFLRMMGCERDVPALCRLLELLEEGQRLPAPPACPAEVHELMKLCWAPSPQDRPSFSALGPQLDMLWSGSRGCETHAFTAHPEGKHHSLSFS
Method: Mass Spectrometry for Janus-3 Kinase (JAK3)
JAK3 kinase (33 pmols; Invitrogen) was incubated with (I-7) (327 pmols) for 3 hrs at 10× excess prior to tryptic digestion. Iodoacetamide was used as the alkylating agent after compound incubation. For tryptic digests a 5 ul aliquot (5.5 pmols) was diluted with 15 ul of 0.1% TFA prior to micro C18 Zip Tipping directly onto the MALDI target using alpha cyano-4-hydroxy cinnamic acid as the matrix (5 mg/ml in 0.1% TFA:Acetonitrile 50:50).
as §2

[1] = system: BTK signaling in Ramos cells; experiment: BTK Ramos cellular assay (phosphorylation of BTK substrate PLCγ2); format: cell-based, human; settings: Homo sapiens, 1 hour compound, anti-IgM stimulation, read-out: BTK Inhibition (Ramos cellular)
Summary of the method: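 Serum-starved Ramos Burkitt lymphoma cells treated 1 h with compound at 1, 0.1, 0.01 or 0.001 μM final. B-cell receptor stimulated with 1 μg anti-human IgM F(ab′)2, 10 min on ice. Lysates (16 μg protein) immunoblotted for phospho-PLCγ2.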

BTK in Ramos cells [2] = target: T1, BTK in Ramos cells (Homo sapiens (Human), UniProt Q06187); experiment: Washout experiment with I-7 and probe compound I-215 in Ramos cells; format: cell-based; settings: 0.1 μM, 1 hour, then washout
T1 sequence (Q06187 whole entry): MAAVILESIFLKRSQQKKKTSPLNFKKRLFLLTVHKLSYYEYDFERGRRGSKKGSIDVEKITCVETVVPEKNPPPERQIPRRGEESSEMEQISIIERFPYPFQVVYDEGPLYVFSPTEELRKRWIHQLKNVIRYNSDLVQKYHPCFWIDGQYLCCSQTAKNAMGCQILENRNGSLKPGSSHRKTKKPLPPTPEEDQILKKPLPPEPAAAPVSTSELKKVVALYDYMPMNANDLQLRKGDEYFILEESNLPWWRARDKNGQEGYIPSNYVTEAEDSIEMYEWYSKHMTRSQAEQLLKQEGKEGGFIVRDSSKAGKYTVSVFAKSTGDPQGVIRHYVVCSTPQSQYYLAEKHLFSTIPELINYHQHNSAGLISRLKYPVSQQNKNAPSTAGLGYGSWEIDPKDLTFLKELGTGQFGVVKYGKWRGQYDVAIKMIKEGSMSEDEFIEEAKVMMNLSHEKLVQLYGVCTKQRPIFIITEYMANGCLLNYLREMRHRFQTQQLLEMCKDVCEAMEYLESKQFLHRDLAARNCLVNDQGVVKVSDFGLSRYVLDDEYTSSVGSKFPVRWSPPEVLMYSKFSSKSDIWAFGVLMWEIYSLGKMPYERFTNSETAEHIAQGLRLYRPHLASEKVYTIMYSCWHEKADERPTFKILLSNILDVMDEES
Method: Washout Experiment with I-7 and Probe Compound I-215
Ramos cells were incubated with 0.1 μM I-7 or a reversible BTK inhibitor control compound in serum free media for 1 hour at 37° C. The cells were then washed in compound-free media and lysed 0, 4, 6, or 8 hours after compound removal. Cell lysates were incubated with 1 μM I-215 for 1 hour at room temperature, then overnight at 4° C. with streptavidin-coupled agarose beads. Protein was boiled off the beads and BTK association was assessed by western blot. […] In contrast, with the reversible inhibitor control, 45% of BTK protein is unbound and available to the probe at 0 hours and by 4 hours 100% of BTK protein is unbound and available to bind the probe. All samples were normalized to the DMSO-treated cells harvested at 0 hours.

BTK = BTK (Homo sapiens (Human), UniProt Q06187); experiment: Mass spectrometry for BTK (intact protein); format: binding; settings: 1 hr, 10× fold excess of compound
Sequence of BTK (Q06187 whole entry): as above
Method: Mass Spectrometry for BTK
Intact BTK was incubated for 1 hr at a 10× fold excess of I-7 to protein. Aliquots (2 μl) of the samples were diluted with 10 μl of 0.1% TFA prior to micro C4 ZipTipping directly onto the MALDI target using Sinapinic acid as the desorption matrix (10 mg/ml in 0.1% TFA:Acetonitrile 20:80).

BTK in Ramos cells [3] = target: T1, BTK in Ramos cells; experiment: BTK occupancy from in vitro samples by ELISA (Ramos cells); format: cell-based; settings: ELISA with probe I-215
Source text: Measuring BTK Occupancy from In Vitro Samples by ELISA
In order to determine the amount of free BTK in cell or tissue lysates, an ELISA protocol was employed that utilizes a biotinylated probe compound that binds only to free, unoccupied BTK. The conjugated biotin is captured on a streptavidin-coated ELISA plate and detected with a mouse anti-BTK antibody (Becton Dickinson, Franklin Lakes, N.J., USA) and a secondary goat anti-mouse HRP antibody (Zymed, South San Francisco, Calif., USA).
All samples were prepared with equal concentrations of Biorad lysis buffer (Hercules, Calif., USA), 0.5% bovine serum albumin in PBS with 0.05% Tween-20 to give a final concentration of 1 μM I-215. Samples were incubated in a mixing plate for 1 hr at room temperature while shaking to allow probe compound I-215 to bind to free BTK. After incubation with I-215, samples were added to a washed, streptavidin-coated ELISA plate (Pierce, Rockford, Ill., USA) and incubated for 1 hr at room temperature while shaking. The plate was then washed with PBS containing 0.05% Tween-20 using an automatic plate washer. Anti-BTK antibody was prepared at 1:1000 dilution in 0.5% BSA in PBS (0.05% Tween-20) and added to the ELISA plate. The plate was incubated for 1 hr at room temperature while shaking. The plate was washed as described above and the secondary HRP antibody was prepared at 1:5000 dilution in 0.5% BSA in PBS (0.05% Tween-20). The plate was incubated and washed as described above. TMB was added to the plate, and OD650 was monitored until reaching 1 OD unit. The reaction was then stopped with addition of H2SO4. The plate was analyzed using Gen 5 software, and a 4 Parameter Logistic curve was employed to quantitate samples. Recombinant BTK (Invitrogen, Carlsbad, Calif., USA) was used for the standard curve.
A concentration designated as “A” is greater than 1 nM; a concentration designated as “B” is greater than 10 nM; and a concentration designated as “C” is greater than 50 nM.

[4] = system: BTK kinase activity (PLCγ2 phosphorylation) in Ramos cells; experiment: Washout experiment with Ramos cells; format: cell-based, human; settings: 100 nM compound for 1 hour, then washout
Method: Washout Experiment with Ramos Cells
Ramos cells were serum starved for one hour in RPMI media+1% glutamine at 37° C. After starvation, Ramos cells were treated with 100 nM compound diluted in serum free RPMI media for 1 hour. After compound treatment, the media was removed and cells were washed with compound-free media. Subsequently, Ramos cells were washed every 2 hours and resuspended in fresh compound-free media. Cells were collected at specified timepoints, treated with 1 ug anti-human IgM (Southern Biotech cat #2022-01) for 10 minutes on ice to induce BCR signaling and then washed in PBS. Ramos cells were then lysed in Cell Extraction Buffer (Invitrogen FNN0011) supplemented with Roche complete protease inhibitor tablets (Roche 11697498001) and phosphatase inhibitors (Roche 04 906 837 001) and 18 ug total protein lysate was loaded in each lane. Inhibition of BTK kinase activity was assayed by measuring its substrate (PLCγ2) phosphorylation by western blot with phospho-specific antibodies from Cell Signaling Technologies cat #3871. The results of this experiment with compounds I-2, I-4 and I-7 are depicted in FIGS. 1, 2 and 3.

Sequence of TEC kinase (P42680 whole entry): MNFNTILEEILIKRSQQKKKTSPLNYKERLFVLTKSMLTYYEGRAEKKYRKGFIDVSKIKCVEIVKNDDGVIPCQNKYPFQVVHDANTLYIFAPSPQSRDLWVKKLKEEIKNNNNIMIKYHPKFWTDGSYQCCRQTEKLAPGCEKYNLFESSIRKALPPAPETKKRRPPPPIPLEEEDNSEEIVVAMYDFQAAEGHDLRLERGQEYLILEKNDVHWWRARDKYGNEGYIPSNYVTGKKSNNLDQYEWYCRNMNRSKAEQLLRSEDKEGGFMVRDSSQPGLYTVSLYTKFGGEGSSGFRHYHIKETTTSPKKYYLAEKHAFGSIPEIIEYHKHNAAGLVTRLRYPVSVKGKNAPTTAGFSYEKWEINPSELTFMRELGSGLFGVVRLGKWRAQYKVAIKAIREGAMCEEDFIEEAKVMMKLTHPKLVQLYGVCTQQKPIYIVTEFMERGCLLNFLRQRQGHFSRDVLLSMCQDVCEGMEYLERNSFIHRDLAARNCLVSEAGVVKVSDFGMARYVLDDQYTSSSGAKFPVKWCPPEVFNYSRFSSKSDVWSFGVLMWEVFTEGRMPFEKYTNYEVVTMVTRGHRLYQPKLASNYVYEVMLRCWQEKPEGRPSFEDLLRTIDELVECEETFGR

| covalent modification of TEC kinase peptide GCLLNFLR by mass spectrometry (TEC kinase) | modification of JAK3 kinase by mass spectrometry (JAK3 kinase) | IC50 [1] | time BTK protein remains occupied after compound removal (BTK in Ramos cells [2]) | modification of BTK by mass spectrometry (BTK) | >50% occupancy (concentration) (BTK in Ramos cells [3]) | >90% occupancy (concentration) (BTK in Ramos cells [3]) | Compound | BTK Inhibition Type [4] |
| --- | --- | --- | --- | --- | --- | --- | --- | --- |
| reaction was complete | not entirely complete | < 10 nM | over 8 hours | complete modification | A (greater than 1 nM) | B (greater than 10 nM) | C=CC(=O)Nc1cccc(Nc2nc(Nc3ccccc3)ncc2C)c1 [Compound I-7, N-(3-(5-methyl-2-(phenylamino)pyrimidin-4-ylamino)phenyl) acrylamide] | irreversible |
|  |  | < 10 nM |  | completely modify | A (greater than 1 nM) | B (greater than 10 nM) | C=CC(=O)Nc1cccc(Nc2nc(Nc3ccc(OCCOC)c(F)c3)ncc2F)c1 [Compound I-96, N-(3-(2-(3-fluoro-4-(2-methoxyethoxy)phenylamino)-5-fluoropyrimidin-4-ylamino)phenyl)acrylamide] |  |
|  | measurable modification |  |  |  |  |  | Cc1cnc(Nc2cccc(S(N)(=O)=O)c2)nc1Nc1ccc2c(c1)CCN(C(=O)CCl)C2 [Compound I-11, 3-(4-(2-(2-chloroacetyl)-1,2,3,4-tetrahydroisoquinolin-6-ylamino)-5-methylpyrimidin-2-ylamino)benzenesulfonamide] |  |
| reaction was complete |  |  |  |  |  |  | C=CC(=O)Nc1cccc(Nc2ncc(C)c(Nc3cccc(C)c3)n2)c1 [Compound I-2, N-(3-(5-methyl-4-(m-tolylamino)pyrimidin-2-ylamino)phenyl) acrylamide] | irreversible |
| reaction was complete |  | 10 to 100 nM |  |  |  |  | Cc1cccc(Nc2nc(Nc3cccc(NC(=O)/C=C/CN(C)C)c3)ncc2F)c1 [Compound I-4, (E)-4-(dimethylamino)-N-(3-(5-fluoro-4-(m-tolylamino)pyrimidin-2-ylamino)phenyl)but-2-enamide] | irreversible |
